Data published in patent publication US4526898A, “Antihypertensive 4-(2-imidazolin-2-yl-amino)-2-methyl-indazole” (priority 1983, dated 1985).
Where two headings read alike, the source gives them in different places.

Experiments:
[1] = system: Mouse; assay: Doubling of hexobarbitone sodium sleeping time (CNS activity); format: in vivo; conditions: po, read-out: Effective dose: Double hexobarbitone sodium sleeping time
Protocol: (§1) All tests were carried out under identical conditions according to standard testing methods. The animal species used, the route of administering the material to be tested, the type of test and the results obtained are shown in Table I hereunder.

[2] = system: Mouse; assay: Doubling of ethanol sleeping time (CNS activity); format: in vivo; conditions: po, read-out: Effective dose: Double ethanol sleeping time
Protocol: as §1

[3] = system: Rat; assay: Doubling of chloralhydrate sleeping time (CNS activity); format: in vivo; conditions: po, read-out: Effective dose: Double chloralhydrate sleeping time
Protocol: as §1

[4] = system: Mouse; assay: Reduction in exploratory behaviour; format: in vivo; conditions: po, read-out: Effective dose: 50% reduction in exploratory behaviour
Protocol: as §1

[5] = system: Rat; assay: Reduction in tetrabenazine-induced ptosis; format: in vivo; conditions: po, read-out: Effective dose: 50% reduction in tetrabenazine-induced ptosis
Protocol: as §1

[6] = system: Mouse; assay: Reduction of 5HTP-induced head twitches; format: in vivo; conditions: sc, read-out: Effective dose: 50% reduction of 5HTP-induced head twitches
Protocol: as §1

[7] = system: Mouse; assay: Inhibition of acetic acid-induced writhing; format: in vivo; conditions: po, read-out: Effective dose: 50% inhibition of acetic acid-induced writhing
Protocol: as §1

[8] = system: Mouse; assay: Inhibition of heat-induced tail flick; format: in vivo; conditions: po, read-out: Effective dose: 50% inhibition of heat-induced tail flick
Protocol: as §1

[9] = system: conscious cats; assay: Behavioural observation in conscious cats; format: in vivo, cat
[10] = system: adrenaline vasopressor effect; assay: Adrenaline antagonism (adrenaline reversal) in anaesthetised cats; format: in vivo, cat; conditions: adrenaline i.v., 5 to 10 mg/kg b.w. intraduodenally
Text: Experimental hypertension was induced in anaesthetised cats by administering (i.v.) adrenaline.

[11] = Toxicity LD50 in mouse; conditions: in vivo
Protocol: (§2) Toxicity values were determined applying identical standard methods. The data obtained are listed herebelow in Table II showing LD50 values as mg/kg body weight.

[12] = Toxicity LD50 in rat; conditions: in vivo
Protocol: as §2

[13] = Antihypertensive activity in nephrogenic GOLDBLATT hypertensive rats; format: in vivo, rat; conditions: in vivo, po; GOLDBLATT hypertensive rats, p.o.; LD50 rat p.o.; read-out: therapeutic index LD50 /ED50
Protocol: (§3) Antihypertensive activities for Sgd 101/75 of the invention and Sgd 230/75 of U.S. Pat. No. 4,036,976 were determined with nephrogenic GOLDBLATT hypertensive rats.

[14] = system: nephrogenic GOLDBLATT hypertensive rats; assay: as above; format: in vivo, rat; conditions: for ED50: Rattus norvegicus, po, nephrogenic GOLDBLATT hypertensive rats
Protocol: as §3

[15] = system: α2 -adrenoceptors; assay: Adrenoceptor activity, α2; conditions: summary statement
[16] = system: α1 -adrenoceptors; assay: Adrenoceptor activity, α1; conditions: summary statement
[17] = system: extra-cellular calcium controlled α1s -adrenoceptors; assay: Adrenoceptor activity, α1s; conditions: summary statement
[18] = Blood-brain barrier penetration; conditions: summary statement
[19] = system: drug-metabolising enzymes in the liver; assay: Induction of drug-metabolising enzymes in the liver; conditions: summary statement
[20] = system: genetically fixed hypertension rats; conditions: p.o., prior art background; cited from earlier work

Row | SMILES | ED (2-fold sleeping time) [1] [mg/kg] | ED (2-fold sleeping time) [2] [mg/kg] | ED (2-fold sleeping time) [3] [mg/kg] | ED50 [4] [mg/kg] | ED50 [6] [mg/kg] | ED50 [7] [mg/kg] | ED50 [8] [mg/kg] | LD50 ([11]; iv) [mg/kg] | LD50 ([11]; po) [mg/kg] | LD50 ([12]; iv) [mg/kg] | LD50 ([12]; po) [mg/kg] | selectivity ratio [13] | ED50 [14] [mg/kg] | other results
1 | Clc1cccc(Cl)c1N=C1NCCN1 [Clonidine, 2-((2,6-dichloro-phenyl)-imino)-imidazolidine, reference compound] | 0.3 | 0.02 | 0.05 | 0.12 | 0.028 | 0.07 | 5 |  |  |  |  |  |  | ED50 ([5]; Rat, p.o.): 0.3 mg/kg; Behavioural changes / CNS depression ([9]; 1 mg/kg i.p.): signs of CNS depression
2 | Cn1cc2c(NC3=NCCN3)cccc2n1 [Sgd 101/75, 4-(2-imidazolin-2-yl-amino)-2-methyl-indazole] | > 100 | > 100 | > 100 | 72 | 28 | 4.5 | > 100 | 58 | 3900 | 69 | 3220 | 767 | 4.2 | ED50 ([5]; Rattus norvegicus): 33 mg/kg; Behavioural changes / CNS depression ([9]; 4 and 10 mg/kg i.p.): no apparent behavioural changes; Effect on adrenaline vasopressor effect (adrenaline reversal) [10]: conversion of the vasopressor effect of adrenaline into a depressor response; anti-hypertensive activity relative to the prior art compound ([14]; relative to Sgd 230/75, taking into account LD50 values (rat, p.o.)): about 190%; Activity on α2 -adrenoceptors [15]: complete antagonist; Activity on α1 -adrenoceptors [16]: partial agonist; Activity on α1s -adrenoceptors [17]: complete and highly specific agonist; Penetration of the blood-brain barrier [18]: does not readily penetrate the blood-brain barrier; Induction of drug-metabolising enzymes in the liver [19]: does not induce drug-metabolising enzymes in the liver
3 | Cn1ncc2c(NC3=NCCN3)cccc21 [Sgd 230/75, 4-(2-imidazolin-2-yl-amino)-1-methyl-indazole, reference compound] |  |  |  |  |  |  |  | 22 | 600 | 90 | 1200 | 400 | 3 | therapeutic index LD50 /ED50 [20]: 800
